Key:
[1] = Inhibition of human erythrocyte 20s proteasome caspase-like activity using Z-LLE-MCA as substrate pretreated for 10 mins followed by substrate addition measured after 3 hrs by spectrophotometric method
[2] = Inhibition of human erythrocyte 20s proteasome trypsin-like activity using Boc-LRR-MCA as substrate pretreated for 10 mins followed by substrate addition measured after 3 hrs by spectrophotometric method

Structure (SMILES): C=C1CC[C@H]2C(C)(C)[C@H](O)CC[C@]2(C)[C@H]1CC1=C(O)C(=O)C2=C(C1=O)[C@@]13C=C[C@@H](O)[C@H](O)[C@]1(C2)C(=O)c1c(O)cc(C)cc1C3=O
- IC50 [1]: 17.3 µM
- IC50 [2]: > 50 µM
